This passage reports GI50 results from US20260226085A1, “HETEROCYCLIC COMPOUNDS AS WRN INHIBITORS” (Synnovation Therapeutics, Inc., priority 2023, published 2026).

In this assay the test system is SW48 colorectal cancer cells. The experiment in a line: Cell-Titer Glo measurement of growth-inhibitory activity in SW48 cells. It counts as cell-based. The conditions noted are these: Homo sapiens, 120 h, cell viability on day 5, Cell-titer Glo, baseline subtracted, 4PL fit, read-out: SW48_GI50. On the procedure: Example A. Cell-Titer Glo Measurement of Growth-Inhibitory Activity in SW48 Cells
This cell-based assay measures growth-inhibitory activity of selected WRN inhibitors in SW48 colorectal cancer cells. SW48 cell line (#CCL-231) was purchased from American type culture collection (ATCC). Cells were cultured following ATCC instructions. The base medium for this cell line is ATCC-formulated Leibovitz's L-15 Medium (#30-2008). To prepare complete medium, fetal bovine serum was added at a final concentration of 10%. Antibiotics including penicillin and streptomycin (#SV30010) were purchased from Cytiva and added into complete medium to prevent bacteria contamination. Cells with a passage number of below 20 were used in this cell-based assay. One day before the assay, cells were resuspended in complete medium and seeded into 96-well plates at a final density of 2000 cells per well. One extra plate was added to measure baseline viability on day 1 before compound treatment. Baseline cell viability was measured using Promega Cell-titer Glo reagent (#G7573) following the protocol provided by the manufacture. Compounds were dissolved in DMSO at a stock concentration of 10 mmol/L. Three-fold serial dilution was performed using DMSO to prepare master plates. Compounds were further diluted using complete medium and added into assay plates. The final concentration of DMSO was 0.2% in assay plates. Cell viability was measured on day 5 using Promega Cell-titer Glo reagent following the same protocol provided by the manufacture. Assay plates were kept on orbital shaker (300 rounds per min) for 2 min and then kept in 37° C. incubator for another 10 minutes. Cell-titer Glo luminescence signal was measured using i3x plate reader. Baseline cell viability was subtracted for growth inhibition 50 (GI50) estimate using GraphPad Prism following the four-parameter logistic (4PL) curve-fitting mathematical model.
Turning to `CCc1c(N2CCN(C(=O)c3ncc4ccccc4c3O)CC2)c(=O)n2nc(C3=CCOCC3)nc2n1CC(=O)Nc1ccc(C(F)(F)F)cc1Cl` [Example 1, N-[2-Chloro-4-(trifluoromethyl)phenyl]-2-[2-(3,6-dihydro-2H-pyran-4-yl)-5-ethyl-6-[4-(4-hydroxyisoquinoline-3-carbonyl)piperazin-1-yl]-7-oxo-[1,2,4]triazolo[1,5-a]pyrimidin-4-yl]acetamide], the GI50 is below 100 nM.

In the case of `CCc1c(N2CCN(C(=O)c3nc4ccccc4cc3O)CC2)c(=O)n2nc(C3=CCOCC3)nc2n1CC(=O)Nc1ccc(C(F)(F)F)cc1Cl` [Example 2, N-[2-Chloro-4-(trifluoromethyl)phenyl]-2-[2-(3,6-dihydro-2H-pyran-4-yl)-5-ethyl-6-[4-(3-hydroxyquinoline-2-carbonyl)piperazin-1-yl]-7-oxo-[1,2,4]triazolo[1,5-a]pyrimidin-4-yl]acetamide], the GI50 is below 100 nM.

For the compound `CCc1c(N2CCN(Cc3ncccc3O)CC2)c(=O)n2nc(C3=CCOCC3)nc2n1CC(=O)Nc1ccc(C(F)(F)F)cc1Cl` [Example 4, N-[2-chloro-4-(trifluoromethyl)phenyl]-2-[2-(3,6-dihydro-2H-pyran-4-yl)-5-ethyl-6-[4-[(3-hydroxy-2-pyridyl)methyl]piperazin-1-yl]-7-oxo-[1,2,4]triazolo[1,5-a]pyrimidin-4-yl]acetamide], the GI50 was 100 to 1000 nM.

Regarding `CCc1c(N2CCN(C(=O)c3c(O)ccc4cccnc34)CC2)c(=O)n2nc(C3=CCOCC3)nc2n1CC(=O)Nc1ccc(C(F)(F)F)cc1Cl` [Example 5, N-[2-chloro-4-(trifluoromethyl)phenyl]-2-[2-(3,6-dihydro-2H-pyran-4-yl)-5-ethyl-6-[4-(7-hydroxyquinoline-8-carbonyl)piperazin-1-yl]-7-oxo-[1,2,4]triazolo[1,5-a]pyrimidin-4-yl]acetamide], the GI50 is below 100 nM.

As to `CCc1c(N2CCN(C(=O)c3c(O)ccc4cccnc34)CC2)c(=O)n2nc(N3CCC4(CCCO4)CC3)nc2n1CC(=O)Nc1ccc(C(F)(F)F)cc1Cl` [Example 6, N-(2-chloro-4-(trifluoromethyl)phenyl)-2-(5-ethyl-6-(4-(7-hydroxyquinoline-8-carbonyl)piperazin-1-yl)-7-oxo-2-(1-oxa-8-azaspiro[4.5]decan-8-yl)-[1,2,4]triazolo[1,5-a]pyrimidin-4(7H)-yl)acetamide], the GI50 fell in the range of 100 to 1000 nM.

For `CCc1c(N2CCN(Cc3ncccc3O)CC2)c(=O)n2nc(N3CCC4(CCCO4)CC3)nc2n1CC(=O)Nc1ccc(C(F)(F)F)cc1Cl` [Example 7, N-(2-chloro-4-(trifluoromethyl)phenyl)-2-(5-ethyl-6-(4-((3-hydroxypyridin-2-yl)methyl)piperazin-1-yl)-7-oxo-2-(1-oxa-8-azaspiro[4.5]decan-8-yl)-[1,2,4]triazolo[1,5-a]pyrimidin-4(7H)-yl)acetamide], the GI50 lay within 1000 to 5000 nM.

Turning to `CCc1c(N2CCN(C(=O)c3c(O)ccc4cccnc34)CC2)c(=O)n2nc(-c3ccc(S(C)(=O)=O)cc3)nc2n1CC(=O)Nc1ccc(C(F)(F)F)cc1Cl` [Example 8, N-(2-Chloro-4-(trifluoromethyl)phenyl)-2-(5-ethyl-6-(4-(7-hydroxyquinoline-8-carbonyl)piperazin-1-yl)-2-(4-(methylsulfonyl)phenyl)-7-oxo-[1,2,4]triazolo[1,5-a]pyrimidin-4(7H)-yl)acetamide], the GI50 was below 100 nM.

Consider `CCc1c(N2CCN(Cc3ncccc3O)CC2)c(=O)n2nc(-c3ccc(S(C)(=O)=O)cc3)nc2n1CC(=O)Nc1ccc(C(F)(F)F)cc1Cl` [Example 9, N-(2-Chloro-4-(trifluoromethyl)phenyl)-2-(5-ethyl-6-(4-((3-hydroxypyridin-2-yl)methyl)piperazin-1-yl)-2-(4-(methylsulfonyl)phenyl)-7-oxo-[1,2,4]triazolo[1,5-a]pyrimidin-4(7H)-yl)acetamide], for which the GI50 was in the range of 100 to 1000 nM.

`CCc1c(N2CCN(Cc3ncccc3O)CC2)c(=O)n2nc(-c3ccc(P(C)(C)=O)cc3)nc2n1CC(=O)Nc1ccc(C(F)(F)F)cc1Cl` [Example 10, N-(2-Chloro-4-(trifluoromethyl)phenyl)-2-(2-(4-(dimethylphosphoryl)phenyl)-5-ethyl-6-(4-((3-hydroxypyridin-2-yl)methyl)piperazin-1-yl)-7-oxo-[1,2,4]triazolo[1,5-a]pyrimidin-4(7H)-yl)acetamide]: the GI50 is below 100 nM.
